Data on two molecules can be found in patent publication US20200270310A1, “MAFG AS A POTENTIAL THERAPEUTIC TARGET TO RESTORE CHEMOSENSITIVITY IN PLATINUM-RESISTANT CANCER CELLS” (FUNDACÓIN PARA LA INVESTIGACIÓN BIOMÉDICA DEL HOSPITAL …, priority 2017, published 2020).

The subject of data set [1] is H23S cells. The experiment in a line: ROS production after CDDP exposure, sensitive cells. The class given is cell-based, human. How it is done: FIG. 2. Viability assays and Reactive Oxygenated Species detection after CDDP treatment in H23 cell lines. (A) Viability to CDDP in H23S (left) and H23R (right) at 24, 48 and 72 hours and 6 concentrations of CDDP measured by MTT assay. (B) Increment of ROS production in H23S (left) and H23R (right) after 24, 48 and 72 hours of CDDP treatment. $: 72h (vs Basal).
H23/A2780 cells were cultured in 96-well black plates at density of 10,000 cells/well. Cells were treated with 6 different doses of CDDP for 24, 48 and 72 h in RPMI containing 10% FBS. Then treatments were removed and cells were loaded with the fluorescent probe 2′,7′-dichlorodihydrofluorescein diacetate (H2DCFDA) (10 μM) for 45 minutes in RPMI medium (FBS free). Cells were washed twice with RPMI (10% FBS), and fluorescence was recorded in a Fluostar Optima, each hour, over 4 hours period. […] ROS production was calculated dividing the mean H2DCFDA fluorescence by the mean viability. […] All experiments included cells treated with RPMI alone (Basal), and one well without cells as fluorescence basal.
H23/A2780 cells were cultured in 96-well black plates at density of 10,000 cells/well. […] Cells were washed twice with RPMI (10% FBS), and fluorescence was recorded in a Fluostar Optima at 520 nm after excitation at 485 nm. […] ROS production was calculated dividing the mean H2DCFDA fluorescence by the mean viability. […]

For a further data set, the system named is H1299 cells. In words: Viability to CDDP with and without apMAFG6F. In kind it is cell-based, human. From the text: The human cancer cells H23 and A2780, and the HEK-293T epithelial cells were purchased from ATCC (Manassas, USA) and ECACC (Sigma, Spain) and cultured as recommended. The CDDP-resistant variants H23R and A2780R were established in our laboratory as previously described, using CDDP (Farma Ferrer, Spain) for cell viability assays. To validate the results obtained from the resistant cell lines established in our laboratory, we also used the CDDP-resistant lung cancer cell line H1299, with IC50 over 7, purchased from ATCC and maintained as recommended.
HEK293 and H23S/R cells were seeded into 96-well plates then transfected with 5, 12.5, 25, 75 and 100 nM of MAFG aptamers or treated with PBS-Mg using Jet Pei PolyPlus transfection reagent (PolyPlus Transfection, USA). The dose of 25 nM aptamer was afterwards used in combination with increased doses of CDDP to assay viability and ROS production as described above. To confirm the aptamer-transfection efficiency cells were seeded in 24-well plates for aptamer isolation and confirmation of aptamer transfection by quantitative analysis. A Myc-DDK-tagged ORF clone of MAFG the negative control pCMV6 were used for in transient transfection (OriGene, USA) in combination with MAFG-aptamers following the same procedure.

Data set [2] has as its system H23S cells. In words: Response to CDDP after overexpression of miR-7 candidate target genes. The class given is cell-based, human. The procedure:
(§1) cDNA plasmids transfection: a Myc-DDK-tagged ORF clone of MAFG, ELK-1 or ABCA1 and the negative control pCMV6 were used for in transient transfection (OriGene, USA). H23 and A2780 cells were plated onto 60-mm dishes at 6×10^5 cells/dish and transfected with a negative control, MAFG, ELK-1 or ABCA1 vectors (IDs: RC221486; RC208921 and RC221861) using jet-PEI DNA Transfection Reagent (PolyPlus Transfection, USA). For stable overexpression, lentiviruses carrying ELK-1 cDNA (Applied Biological Materials, Canada) were obtained by cotransfecting 15 μg of the specific lentiviral vector (pGIPZ-nonsilencing or pLenti-GIII-CMV-hELK-1-GFP-2A-Puro) and […] of each packaging vector (pCD-NL-BH and pMD2-VSV-G) in 10 million HEK 293T cells using Lipofectamine 2000 (Invitrogen, USA). Supernatants were taken at 48 hours posttransfection. A2780S cells were plated onto 60-mm dishes at 1×10^5 cells/dish and transduced with supernatant carrying nonsilencing or ELK-1 lentivirus, and polybrene was added (5 μg/ml).
(§2) To determine if the expression of the miR-7 candidate target genes was linked to CDDP response, we conducted their in transient overexpression in the sensitive cells comparing their response to CDDP with their parental resistant and sensitive cell lines, both transfected with an empty vector.

In another data set the test system is A2780S cells. The data set is described as above. The class given is cell-based, human. The procedure: as §1, §2
For another data set, the system named is H23R cells. The experiment in a line: Semiquantitative RT-PCR of MAFG and HMOX1 in aptamer-transfected cells after platinum treatment. In kind it is cell-based, human. To be noted: aptamer-transfected H23R after platinum treatment vs H23R. The procedure:
For semiquantitative RT-PCR, 500 ng of total RNA isolated from cell lines was used for RT reaction using PrimeScript™ RT Master (Clontech-Takara, USA) and subsequent semiquantitative PCR using Promega PCR Mix (Promega, USA) as previously described. Relative quantification was performed by measuring the intensity of band amplified using ImageJ software. Primers for HMOX1 (F: 5′-[…]-3′; R: 5′-[…]-3′), MAFG (F: 5′-[…]-3′; R: 5′-[…]-3′) and GAPDH (F: 5′-GAGAGACCCTCACTGCTG-3′; R: 5′-[…]-3′) were designed to include the probe from the array in order to assure the correct transcript identification.

Another data set has as its system MAFG. In words: Determination of the MAFG amino acids with which the aptamer binds. To be noted: aligned with peptides M4 and M5. From the text: FIG. 11. Amino acids of MAFG with which apMNK6F binds (see chA and chB). Interaction zones of apMNK6F aligned with peptides M4 and M5
Moreover, we determined the precise amino acids of MAFG with which apMNK6F binds (see chA and chB of FIG. 11). […] More precisely, the interaction occurs with amino acids 57ARG, 60LYS, 61ASN, 62ARG, 63GLY, 64TYR, 65ALA, 66ALA, 67SER, 68CYS, 69ARG, 70VAL, 71LYS, and 75GLN of the epitope of MAFG comprising amino acids 57 to 75 RTLKNRGYAASCRVKRVTQ (amino acids 57 to 75).

Setting [3] is: versus sensitive line with empty vector.

For `[NH2][Pt]([NH2])([Cl])[Cl]` [CDDP, Cisplatin], the “ROS production versus basal untreated cells” value with H23S cells [1] (3.00 μg/ml CDDP) was 300%. The “ROS after treatment with the drug” value in the data set with H23S cells [1] (Example 1) was “increased”. In addition, the “CDDP IC50” value was “over 7” in the data set with H1299 cells (H1299, as stated in materials, unit not given) and 10 µg/mL in the data set on H1299 cells (untransfected H1299). For the same molecule, in the data set on H23S cells [2] (versus empty vector, not statistically significant (p=0.796)), the “CDDP RI after ABCA1 overexpression” value turned out to be 1.5. In the data set on H23S cells [2] (setting [3]), the “CDDP-RI after MAFG overexpression” value is 1.7. In the data set on A2780S cells (48 h of exposure to the drug), the “response to CDDP after transient ELK-1 overexpression” value is “did not change the response to CDDP”. The “sensitivity to CDDP after stable ELK-1 overexpression” value with A2780S cells (lentiviral transduction) was “did not change the sensitivity to CDDP”. Further, the “CDDP resistance index after MAFG overexpression” value with A2780S cells (setting [3]) was determined as 1.6.

B1: GCGGATGAAGACTGGTGTCGATGCATGTGTAGTGCATTTCGAGCCGTTCTATTGGTGTGCCCTAAATACGAGCAAC (nucleic acid)
chain: GCGGATGAAGACTGGTGTCGATGCATGTGTAGTGCATTTCGAGCCGTTCTATTGGTGTGCCCTAAATACGAGCAAC
modifications: chemistry not given here
notes: DNA aptamer selected against the MAFG protein by SELEX
Take B1: in the data set with H23R cells, the HMOX1 expression entry is reported as “decrease in their expression” and the MAFG expression entry was “decrease in their expression”. The “interaction zone of the aptamer on MAFG” value in the data set with MAFG is reported as “interaction occurs mainly with peptide M4”.
